In a melting point compilation (Tetko et al.; mined from patent text by program, amines drawn as free bases though some values may be those of a salt):

| SMILES | melting point [°C] |
| --- | --- |
| N#Cc1ccc(NC2CCCCC2)c([N+](=O)[O-])c1 | 109 |
| COc1cc(OC)c(OC(=O)CS(=O)(=O)Nc2c(C(C)C)cccc2C(C)C)c(OC)c1 | 167 to 170 |
| Cc1cccc(-c2[nH]c(C(C)C)nc2-c2ccc(F)c(-c3ccc(OCCN4CCCC4=O)cc3)c2)n1 | 95 |
| COc1ccc2[nH]c(C)c(C3CN4CCC3CC4)c2c1 (stereo not given) | 232 to 234 |
| CN(CC(=O)N(C)c1ccc(OCC(=O)N[C@@H](CC(N)=O)C(=O)[C@@H](C(N)c2ccccc2)[C@H](O)C(=O)N2CCC[C@H]2C(=O)NC(C)(C)C)cc1)c1ccccc1 (stereo not given in full) | 107 to 112 |
| CCOC(=O)Cc1sc(Sc2cccc(C(=O)OCC)n2)nc1C | 73 to 75 |
| Cn1ccc2cc(NC(=O)c3cc4cccnc4n3Cc3cccc(F)c3)ccc21 | 191 to 192 |
| COC(=O)C(=NO)c1nc2cc(C)ccc2oc1=O | 176 to 177 |
| COc1cc2ncnc(N3CCC(CN4C=CC(C)=NS4(=O)=O)CC3)c2cc1OC | 203 to 207 |
| COC(=O)c1sc2ccc(N)cc2c1N | 128 to 130 |
| CCOC(=O)c1c(SC)sc2c(F)c(F)c(F)cc2c1=O | 113 to 115 |
| O=C(Nc1ccc(F)cc1)OCC1CSC2=C(O1)c1ccccc1C(=O)C2=O (stereo not given) | 235 to 237 |
| COc1ccc(COc2ccc(C(=O)Nc3ccc4cc(CN5CCCC5)cnc4c3C)cc2)cc1 | 192 to 193 |
| CCN1CC[C@H](NC(=O)c2cc(Cl)c(N)c3c2OCCC3)[C@H](OC)C1 (relative stereo) | 154 |
| CN1CCCC1=Nc1ncnc2c1ncn2[C@H]1C=C[C@@H](O)C1 (racemic) | 135 to 138 |
| Cc1ccc(NC(=O)Nc2ccc(-c3c(Cc4cccnc4)sc4ncnc(N)c34)cc2)cc1 | 220 to 223 |
| COc1ccc2nccc(CCNC(C)=O)c2c1 | 113 to 115 |
| O=C1NCC(c2cccc(C(F)(F)F)c2)C1c1cn2c3c(cccc13)CCC2 (stereo not given) | 82 to 85 |
| C=CCC(CC)(NC)C(=O)c1ccc(OCCO)cc1 (stereo not given) | 80 to 82 |
| Cn1c2cc(Cl)ncc2c(=O)n2nccc12 | > 300 |
| O=C1CCc2sccc21 | 87 to 88 |
| COC1=CC(=O)CN(C)C1 | 71 to 72 |
| Nc1nc2cccnc2c2c1ncn2CC1(O)CCOCC1 | 225 to 226 |
| CCSC(N)=C(C#N)C(N)=S | 200 to 201 |

| SMILES | melting point [°C] |
| --- | --- |
| COc1ccc2c(c1)CCC1C3=CC(C)=C(OC(C)=O)C3(C)CCC21 (stereo not given) | 129 to 130 |
| O=C(O)CCCSc1cccc(Br)n1 | 72 to 74 |
| CC12CCC=CC1=CCC1C2CCC2(C)C(OS(=O)(=O)C(F)(F)F)=CCC12 (stereo not given) | 75 to 76 |
| O=C(c1ccccc1)c1cnn2c(-c3cccc(NC(=O)C4CC4)c3)ccnc12 | 210 to 212 |
| CCOC(=O)c1cnc2occ(Br)c2c1 | 107 to 108 |
| O=c1[nH]cnn1-c1ccc(C(F)(F)F)cc1 | 221 |
| Cc1cc(C)cc(NC(=O)Cc2ccc(OC3(C(=O)O)CCOC3C)cc2)c1 (racemic) | 164 to 167 |
| CCn1c(NC)n[nH]c1=O | 208 to 210 |
| CC(C)(C)c1ccc(C=NOCCOc2ccc(C(=O)O)c(O)c2)cc1 | 161 to 163 |
| O=C1N(CCCCN2CCN(c3n[nH]c4cc(F)ccc34)CC2)CSC12CCCCC2 | 163 to 165 |
| CC(=O)C12CC(C(C)=O)(C1)C2 | 67 to 69 |
| CN(CCNc1ccc2c3c(c4c(OCc5ccccc5)ccc(OCc5ccccc5)c4cc13)NN2CCN(CCO)Cc1ccccc1)Cc1ccccc1 | 147 to 149 |
| c1ccc(CN2CCC(NC3CCOCC3)CC2)cc1 | 60 |
| CC(Cc1cc2ccccc2[nH]1)(NC(=O)OC1C2CC3CC(C2)CC1C3)C(=O)NCC(NC(=O)CCC(=O)OCc1ccccc1)c1ccccc1 (stereo not given) | 109 to 113 |
| CC(=O)OCC1OC(n2c(Cl)c(C=O)c3cc(Cl)c(Cl)cc32)C(O)C1O (stereo not given) | 154 to 155 |
| Cn1cc2c(C3C(=O)Nc4ccc(Br)cc43)nc(NCCN)nc2n1 (stereo not given) | 260 to 262 |
| CCCN1CCC(Cc2ccc3c(c2)c(Cc2ccc(C(=O)O)cc2OC)cn3C)C1=O (stereo not given) | 202 to 212 |
| CCN(CC)CCOc1c(-c2ccc(S(C)(=O)=O)cc2)cnn(-c2cccc(Cl)c2)c1=O | 110 to 113 |
| O=S1(=O)c2cccc3cccc(c23)N1CCCN1CCN(c2ccc(Cl)cc2)CC1 | 120 |
| CC(C)(Cc1ccc(Cl)cn1)C(N)=O | 51.4 to 53.4 |
| O=C(O)C(CC1CCCC1)c1ccc(-c2ccncc2)cc1 (stereo not given) | 118 to 121 |
| Cc1nc(-c2nc(C)c(-c3ccnc(Nc4cc(Cl)c(N5CCOCC5)c(Cl)c4)n3)s2)cs1 | > 300 |
| Cc1cc(SC(C)C)c(NC(=O)CCCCCCSc2nc3ccccc3o2)c(SC(C)C)n1 | 76 to 78 |

The remaining lines, values ahead:

| melting point [°C] | SMILES |
| --- | --- |
| 88 to 89 | COC(=O)c1coc2ccc(OCc3ccccc3)cc2c1=O |
| 136 to 138 | CCCc1cc(C(O)=S)cc(N)c1Oc1ccccc1 |
| 136 to 140 | CC(C)(C)c1ccn(-c2ccc(C(=O)N3Cc4cccnc4Nc4ccccc43)c(C(F)(F)F)c2)n1 |
| 80 to 82 | Cc1cccc(C2=NCSC2(c2ccnc(C)c2)N2CCOC2=O)c1 (stereo not given) |
| 165 to 167 | COc1ccc(S(=O)(=O)N(Cc2ccccc2)c2c(C(=O)O)cnc3c2c(C)nn3C)cc1 |
| 60 to 63 | O=C(c1ccc(F)cc1)c1ccnc(Cl)c1 |
| 202 to 203 | Cn1ccc2cc(Nc3ccncc3)ccc21 |
| 163 to 164 | OCCc1ccc(Nc2ncc3c(n2)-c2ccccc2C(c2ccc(Cl)cc2)C3)cc1 (stereo not given) |
| 130 to 131 | c1ccc(C(CCOc2ccc(CCC3=NCCO3)cc2)(c2ccccc2)c2ccccc2)cc1 |
| 157 to 160 | Cn1nc(-c2ccccc2)c(O)c1-c1ccccc1 |
| 178 to 180 | O=C(Cc1c(C(=O)c2ccccc2)[nH]c2cc(Cl)ccc12)NCCO |
| 195 to 197 | CCCCc1oc2ccccc2c1C(=O)Nc1ccc2c(Br)c(O)ccc2c1 |
| 136 to 138 | CN(C)C=Nc1nc(OC(=O)c2ccccc2)ncc1F |
| 273 to 275 | CN(C)c1ncnc2[nH]c(-c3ccc(Cn4ccnc4)cc3)cc12 |
| 273 to 276 | CC(C)(C(=O)O)n1c(=O)[nH]c2cc3ccccc3cc2c1=O |
| 131 | CC1(c2cccc(Cl)c2)OC(C(=O)O)Oc2ccc(Cl)cc21 (stereo not given) |
| 221 to 222 | CC(C)n1nc(-c2c(-c3ccccc3)nn3ccc(N4CCN(c5ccccn5)CC4)cc23)ccc1=O |
| 156 | CC1(C)c2ccccc2N2Cc3cc(N=Nc4ccc([N+](=O)[O-])cc4)ccc3OC21C (stereo not given) |
| 62 to 64 | CC(=O)OC(C)C=C(C)c1ccc(-c2ccccc2)cc1 (stereo not given) |
| 152 to 154 | COc1ccc(NS(=O)(=O)N2CCn3c(c(C(N)=O)c(Cl)c3-c3ccccc3)C2)cc1 |
| 170 | NCc1sc(C(c2ccc(Cl)cc2)c2c(Cl)cc(-n3ncc(=O)[nH]c3=O)cc2Cl)nc1-c1ccccc1 (stereo not given) |
| 29 to 30 | C=C(C)COc1ccc(C(=O)C=Cc2c[nH]c3ccccc23)c(O)c1 |
| 155 | Fc1ccc(-c2nc3ccccn3c2-c2ccnc(-c3ccc(CN4CCCC4)cc3)c2)cc1F |
